The values that follow come from paper PMC10982999, “Structure-Guided Design and Optimization of Covalent VHL-Targeted Sulfonyl Fluoride PROTACs” (Journal of Medicinal Chemistry, 2024).

The test addresses T1, VHL in HEK293T cells (Homo sapiens, UniProt P40337).
T1 construct: endogenous in cells; host or cells: HEK293T
As to the kind of experiment: Gel-based competition pull-down assay from live cells. It counts as cell-based. The following applies: HEK293T cells pretreated 2 h at 37 °C; lysate treated with VHL-SF2-Biotin 50 μM 2 h. Here is the method:
Figure 2 (A) Structure of VHL-SF2. […] (E) Competition pull-down assay from live cells between VHL-SF2-Biotin and VHL-SF2. HEK293T cells were pretreated with DMSO or varying concentrations of VHL-SF2 for 2 h at 37 °C. The cells were lysed and treated with DMSO or VHL-SF2-Biotin (50 μM) for 2 h at room temperature. A pull-down with streptavidin beads was conducted, after which the protein was resolved on SDS/PAGE. VHL and loading control GAPDH levels were visualized by Western blotting.
Initially, we subjected VHL-SF2-Biotin to the streptavidin shift assay and observed a greater extent of VHL modification (44%) than for VHL-SF1-Biotin under the same conditions (Figure S2). […] Intact LC–MS analysis confirmed single labeling of VHL by VHL-SF2, with 65% conversion at 24 h (Figure S5). Although we attempted several site ID identification experiments by digesting the labeled recombinant VHL, the Ser110-containing peptide was not detected in the samples treated with VHL-SF2. This observation is consistent with a change in peptide properties that is incompatible with mass spectrometry detection compared to untreated samples (Table S2). […]
VCB (11.1 mg/ mL) was diluted with PBS pH 7.4 (2 µg/ mL). […] 10 µL of each sample was loaded onto the gel and the bands were quantified […]

Take `Cc1cc([C@H](C(=O)N2C[C@H](S(=O)(=O)F)C[C@H]2C(=O)N[C@@H](CC(=O)OC(C)(C)C)c2ccc(-c3scnc3C)cc2)C(C)C)on1` [VHL-SF2, tert-Butyl (S)-3-((2S,4R)-4-(Fluorosulfonyl)-1-((R)-3-methyl-2-(3-methylisoxazol-5-yl)butanoyl)pyrr-olidine-2-carboxamido)-3-(4-(4-methylthiazol-5-yl)phenyl)propanoate]: the “pull-down of VHL by VHL-SF2-Biotin after compound pretreatment” value is “dose-dependently competed”.
